Assay [1] has as its system CaSki cells. Description: DNA solubilization assay (apoptosis). The conditions noted are these: for effect on BzATP-induced apoptosis (DNA solubilization): pretreatment: EGF 0.2 nM, zinterol/terbutaline 1 μM 24 h, forskolin 10 μM 14 h with IBMX, isoproterenol 10 μM, phenylephrine 100 μM; for BzATP-induced DNA solubilization after pretreatment: 100 μM BzATP 9 h, 24 h 2 nM epinephrine ± 0.2 nm EGF, zVAD-FMK 30 min before, 50 /ZM; for effect on zinterol (1 μM)-induced inhibition of BzATP-induced apoptosis: cotreatment 24 h: 10 μM propranolol, 100 nM ICI 118,551, 30 μM H-89 dihydrochloride. Format: cell-based, human. The procedure:
Twenty-four hours before the end of the experiment, cells were labeled with [^3H]thymidine (specific activity, 93 Ci/mmol; 5 μCi/1×10^6 cells) for 16 h. The medium was removed, and cells were washed three times with fresh medium lacking [^3H]thymidine and were incubated in the same medium for an additional 6 h. At the end of incubation, the supernatant was stored, and cells were lysed in 0.5 ml lysis buffer (10 mM Tris-HCl, pH 7.5; plus 1 mM EDTA-0.2% Triton X-100) for 1 h at 4° C. The intact chromatin was separated from the fragmented DNA by 5 min centrifugation at 4° C. in Eppendorf microcentrifuge at 12,000×g. The supernatant (lysate) was stored, while the pellet was resuspended in 0.5 ml of 1% sodium dodecyl sulfate (SDS). The radioactivity contained in the supernatants, lysates; and pellets was counted in a scintillation counter, and DNA fragmentation was calculated as: [% Solubilized DNA]=([cpm supernatant+cpm lysates]/[cpm supernatant+cpm lysate+cpm pellet])×100.

The target in assay [2] is T1, full-length human P2X7 receptor (HEK-293-hP2X7-R cells) (Homo sapiens, UniProt Q99572).
T1 construct: For transfections, the full length human P2X7 receptor; expressed in transfected cells; host or cells: HEK-293, pcDNA-6 vector
T1 sequence (Q99572 1-595): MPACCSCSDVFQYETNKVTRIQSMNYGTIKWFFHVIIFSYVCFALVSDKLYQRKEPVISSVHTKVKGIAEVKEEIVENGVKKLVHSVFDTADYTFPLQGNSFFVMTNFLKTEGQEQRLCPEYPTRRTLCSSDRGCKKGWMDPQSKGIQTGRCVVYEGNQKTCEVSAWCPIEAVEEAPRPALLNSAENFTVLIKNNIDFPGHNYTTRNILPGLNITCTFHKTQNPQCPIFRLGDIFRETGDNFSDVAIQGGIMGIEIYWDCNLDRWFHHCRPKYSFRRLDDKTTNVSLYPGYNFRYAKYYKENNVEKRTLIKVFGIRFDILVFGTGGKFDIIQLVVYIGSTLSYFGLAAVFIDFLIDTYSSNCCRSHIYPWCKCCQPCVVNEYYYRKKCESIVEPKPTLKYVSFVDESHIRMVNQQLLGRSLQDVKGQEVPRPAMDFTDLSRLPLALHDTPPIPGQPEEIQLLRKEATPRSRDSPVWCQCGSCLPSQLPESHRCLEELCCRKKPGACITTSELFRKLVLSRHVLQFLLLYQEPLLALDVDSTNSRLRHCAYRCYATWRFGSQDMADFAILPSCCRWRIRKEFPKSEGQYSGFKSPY
Put plainly: Ethidium bromide influx in HEK-293-hP2X7-R and wild-type HEK293 cells on filters. Format: cell-based.

The target in assay [3] is T1, full-length human P2X7 receptor (HEK-293-hP2X7-R cells). Description: Cytosolic calcium in HEK-293-hP2X7-R and wild-type HEK293 cells on filters. In kind it is cell-based.
The test system of assay [4] is hECEs, ECE16-1, HT3, CaSki, SiHa and Hela cells. Conditions: cited from earlier work.
In assay [5] the test system is α-adrenoceptors (CaSki cells). Put plainly: Binding studies, α-adrenoceptor radioligands. Further details: species or system human. Conditions: not shown. How it is done: Binding studies of the adrenoceptors and the EGF receptor used a similar method. Two hundred fifty microliters of binding medium (serum-free DMEM, 0.1% BSA, 10 mM HEPES) containing […] of the radioligand were added to the apical container of the filter, and 500/μl of the same solution to the basolateral container; parallel tubes contained an additional 200-fold excess radioinert ligand. The cells were then incubated at 4° C. for 3 h; at the completion of incubations cells were washed three times with ice-cold HBSS containing 0.1% BSA. Cells were solubilized in 0.2 N NaOH, and the bound ligand was separated on glass fiber filters (Whatman, GF/C, Tonawanda, N.Y.) by vacuum filtration. The associated radioligand was counted either in a β-scintillation counter (for [^3H] associated ligands) or in a γ-counter (for 125I] associated ligands). […] (all at 1 μCi/ml; specific activity, about 90 Ci/mmo]; Amersham), and [^125I]EGF (5 μCi/ml; specific activity, about 100 Ci/mmol; Biomedical Technology, Stoughton, Mass.). […] Human recombinant EGF was from R&D Systems (Minneapolis, Minn.). Specific receptor binding was expressed per milligram DNA, and data were analyzed by Scatchard plot.

For assay [6], the system named is β-arrestin-2-GFP in HEK-293-hP2X7-R cells. Put plainly: Real-time confocal microscopy of β-arrestin-2-GFP, HEK-293 cells. In kind it is cell-based, human. The procedure:
(§1) CaSki cells transfected with the β-arrestin-2-GFP, or HEK-293 cells co-transfected with the full-length human P2X7-receptor and the β-arrestin-2-GFP were plated on 35-mm glass-bottom culture dishes (MatTek Corporation, Ashland, MA). Dishes contained a centered, 1 cm well formed from a glass coverslip sealed hole in the plastic. Two hours before experiments the medium was replaced with serum-free medium supplemented with 10 mM HEPES. The distribution of the β-arrestin-2-GFP was visualized before and after treatment with the agonist by real-time confocal microscopy. Imaging of the β-arrestin-2-GFP fluorescence in the same cells was performed on a Zeiss laser-scanning confocal microscope (LSM-510) using a heated (37° C.) microscope stage. Barak et al., “A beta-arrestin/green fluorescent protein biosensor for detecting G protein-coupled receptor activation” J Biol Chem 272:27497-27500 (1997).
(§2) Images were collected sequentially before and after treatment with agonist for 0-30 min at 37° C. using single line excitation (488 nm).

The target of assay [7] is T2, β2-adrenoceptor (CaSki cells) (Homo sapiens, UniProt P07550).
T2 construct: endogenous in cells; host or cells: CaSki cells on filters (intact cells, 4 °C)
T2 sequence (P07550 whole entry): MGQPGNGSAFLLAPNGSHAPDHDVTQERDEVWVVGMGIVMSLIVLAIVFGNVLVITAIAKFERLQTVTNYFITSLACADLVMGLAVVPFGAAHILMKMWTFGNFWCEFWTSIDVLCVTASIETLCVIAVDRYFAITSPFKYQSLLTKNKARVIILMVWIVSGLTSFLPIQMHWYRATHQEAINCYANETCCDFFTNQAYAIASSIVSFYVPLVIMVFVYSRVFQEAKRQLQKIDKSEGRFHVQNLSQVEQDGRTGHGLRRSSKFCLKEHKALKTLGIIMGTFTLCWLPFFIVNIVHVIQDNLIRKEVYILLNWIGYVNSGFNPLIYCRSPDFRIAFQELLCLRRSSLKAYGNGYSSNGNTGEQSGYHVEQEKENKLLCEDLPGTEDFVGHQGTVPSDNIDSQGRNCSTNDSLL
Description: Binding studies, β-adrenoceptor radioligand.

The test system of assay [8] is CaSki cells. Put plainly: Number of CaSki cells in culture. Format: cell-based, human. The conditions noted are these: serum-free; 0.2 nM EGF, 2 nM epinephrine, or both, 24 h. The procedure:
Near-confluent cultures of CaSki cells on filters were shifted for 14 hours to serum-free medium supplemented with 1% BSA and were treated in the same medium with 0.2 nM EGF, 2 nM epinephrine, or both for an additional 24 h. At the completion of treatments, cells were harvested off the filters and counted.

The target of assay [9] is P2X7 receptor (HEK-293-hP2X7-R cells) (Homo sapiens, UniProt Q99572).
The test system of assay [10] is β-arrestin-2-GFP in CaSki cells. Put plainly: Real-time confocal microscopy of β-arrestin-2-GFP, CaSki cells. In kind it is cell-based, human. The conditions noted are these: CaSki transfected with β-arrestin-2-GFP; 250 μM ATP. The procedure:
as §1, §2

The mark [11] stands for this setting: HEK-293-hP2X7-R with β-arrestin-2-GFP, 10 μM angiotensin, 10 μM UTP.

Residues, ends and D or L forms follow the SMILES beside them. *: point of attachment. Cbz = O=C(OCc1ccccc1)*; CH2F = FC* Where only a bound is given, the exact number is not on record here.

`CC(C)(C)NCC(O)c1cc(O)cc(O)c1` (stereo not shown) [terbutaline]: the “effect on BzATP-induced apoptosis (DNA solubilization)” value (“effect on BzATP-induced apoptosis” for short) in assay [1] was “inhibited”.

In the case of `COC(=O)C[C@H](NC(=O)[C@H](C)NC(=O)[C@@H](NC(=O)OCc1ccccc1)C(C)C)C(=O)CF` [zVAD-FMK, Benzyloxy-vallne-alardne-aspartate-O-methylfluoromethylketone] (Cbz-Val-Ala-Asp(OMe)-CH2F), the “BzATP-induced DNA solubilization after pretreatment” value in assay [1] is reported as “about 1.4%”.

On to TNFα, for which, in assay [1] (100 μM BzATP for 9 h or 10 μM TNFα for 14 h), the DNA solubilization result is given as “significantly increased DNA solubilization”.

As to `CC(C)NCC(O)COc1cccc2ccccc12` (stereo not shown) [propranolol], the “effect on zinterol (1 μM)-induced inhibition of BzATP-induced apoptosis” value in assay [1] is recorded as “blocked”.

As to `CN([C@@H](Cc1ccc(OS(=O)(=O)c2cccc3cnccc23)cc1)C(=O)N1CCN(c2ccccc2)CC1)S(=O)(=O)c1cccc2cnccc12` [KN-62, 1-[N,O-bis(5-isoquinolinesulfonyl)-N-methyl-L-tyrosyl]-4-phenylpiperazine], in assay [2], the “effect on ATP/BzATP-induced influx of ethidium bromide” value is given as “inhibited”. The “effect on ATP/BzATP-induced sustained calcium increase” value in [3] was “inhibited”.

As for `C[C@]12CC[C@@H]3c4ccc(O)cc4C[C@@H](CCCCCCCCC[S+]([O-])CCCC(F)(F)C(F)(F)F)[C@H]3[C@@H]1CC[C@@H]2O` (stereo partly shown) [ICI-182780], the “inhibition of the estrogen antiapoptotic action” value in [4] is reported as “lack of inhibition”.

Turning to `COc1cc2nc(N3CCN(C(=O)c4ccco4)CC3)nc(N)c2cc1OC` [[^3H]prazosin], the specific binding entry in [5] is “no specific binding”.

As for `CC(C)NCC(O)c1ccc(O)c(O)c1` (stereo not shown) [isoproterenol], the “effect on BzATP-induced apoptosis” value in [1] was “no effect”.

Turning to `CC/C(=C(\c1ccccc1)c1ccc(OCCN(C)C)cc1)c1ccccc1` [tamoxifen], the “inhibition of the estrogen antiapoptotic action” value in [4] is reported as “lack of inhibition”.

Regarding `O=c1ccn([C@@H]2O[C@H](COP(=O)(O)OP(=O)(O)OP(=O)(O)O)[C@@H](O)[C@H]2O)c(=O)[nH]1` [UTP], the “effect on cytosolic calcium levels” value in [3] (not shown) is given as “nor did the nucleotide UTP have any appreciable effect”. Also, in assay [6] (setting [11]), the “effect on the GFP fluorescence” value is reported as “Neither angiotensin, nor UTP, had a significant effect”.

For `Cl.Cl.O=S(=O)(NCCNC/C=C/c1ccc(Br)cc1)c1cccc2cnccc12` [H-89 dihydrochloride], in [1], the “effect on zinterol (1 μM)-induced inhibition of BzATP-induced apoptosis” value is listed as “blocked”.

For the compound angiotensin, the “effect on the GFP fluorescence” value in assay [6] (setting [11]) is given as “Neither angiotensin, nor UTP, had a significant effect”.

Turning to `CNC[C@H](O)c1cccc(O)c1` [phenylephrine], the “effect on BzATP-induced apoptosis” value in [1] is reported as “no effect”.

For the compound `CC(C)(C)NCC(O)COc1cccc2[nH]c(C#N)c([125I])c12` (stereo not shown) [[^125I]cyanopindolol], in [7], the binding activity entry is “about 15 fmol/mg DNA” and the “binding activity as receptors per cell” value is on record as ~10,000 receptors/cell.

In the case of `CNC[C@H](O)c1ccc(O)c(O)c1` [epinephrine], in [1], the “BzATP-induced DNA solubilization after pretreatment” value came out at 4.6%. For the same compound, the “number of cells in culture” value in [8] is reported as “increased the number of cells in culture”.

For `CC(=O)[C@H]1CC[C@H]2[C@@H]3CCC4=CC(=O)CC[C@]4(C)[C@H]3CC[C@]12C` [progesterone], the “inhibition of the estrogen antiapoptotic action” value in assay [4] is given as “lack of inhibition”.

For `Nc1ncnc2c1ncn2[C@@H](C=O)O[C@@H](C=O)COP(=O)(O)OP(=O)(O)OP(=O)(O)O` [oATP, oxidized ATP], the “effect on ATP/BzATP-induced influx of ethidium bromide” value in assay [2] is listed as “inhibited”. In [3], the “effect on ATP/BzATP-induced sustained calcium increase” value is reported as “inhibited”.

Turning to [^3H]tamsulosin, the specific binding entry in [5] was “no specific binding”.

`Nc1ncnc2c1ncn2[C@@H]1O[C@H](COP(=O)(O)OP(=O)(O)OP(=O)(O)O)[C@@H](O)[C@H]1O` [ATP, adenosine triphosphate]: the “65 KDa and 18 KDa forms in the cytosol” value in [9] (HEK-293-hP2X7-R cells) is reported as “biphasic change”. Moreover, in assay [9] (HEK-293-hP2X7-R, began 10 min after treatment), the “18 KDa form in the membrane-enriched fraction” value is “gradual increase”. In addition, in [3], the Cai transients entry is reported as “did not induce Cai transients” and the “sustained cytosolic calcium increase” value is on record as “induced sustained Ci increase”. Also, the “time to redistribution of the GFP fluorescence towards cell periphery” value in assay [6] (HEK-293-hP2X7-R co-transfected with β-arrestin-2-GFP, 250 μM ATP) is reported as at most 5 min. Besides, the “duration of redistribution effect” value in [6] (HEK-293-hP2X7-R with β-arrestin-2-GFP, 250 μM ATP) is on record as “at least 10 minutes”. Moreover, in assay [6] (HEK-293 cells transfected with only β-arrestin-2-GFP, 250 μM ATP), the “effect on the GFP fluorescence” value is “no significant effect”. The “time to re-distribution of GFP fluorescence towards cell periphery” value in [10] was at most 3 min.

For `CC(C)(Cc1ccccc1)NCC(O)c1ccc(O)c(NS(C)(=O)=O)c1` (stereo not shown) [zinterol], in assay [1] (pretreatment 24 h: 1 μM zinterol or 0.2 nM EGF), the “effect on TNFα-induced increase in DNA solubilization” value is on record as “no effect”. Also, the “effect on BzATP-induced apoptosis” value in assay [1] is “inhibited”.

`Cc1ccc(OCC(O)C(C)NC(C)C)c2c1CCC2` (stereo not shown) [ICI 118,551]: the “effect on zinterol (1 μM)-induced inhibition of BzATP-induced apoptosis” value in assay [1] is on record as “blocked”.

Values taken from patent publication US7767789B2, “Truncated proteins as cancer markers” (University Hopitals of Cleveland, priority 2005, dated 2010).
